Laboratory results: PMC4626217 (Bioorganic & medicinal chemistry, 2015)

Tests used:
[1] = test system: 797 NUT midline carcinoma cell line; experiment: 797 cell viability; type: cell-based; settings: 48 hours incubation, ATPLite; ± standard error of LogIC50
HDACs 1–3 = experiment: HDAC biochemical assay, text summary over HDACs 1–3; parameters: species or system human; settings: summary of Table 1; for IC50: read-out: IC50 for HDACs 1–3; for IC50 range in words: HDACs 1–3 where stated, unit inside the printed words
[2] = test system: 10326 NUT midline carcinoma cell line; experiment: 10326 cell viability; type: cell-based; settings: 48 hours incubation, ATPLite; ± standard error of LogIC50
HDAC1 = HDAC1 (Homo sapiens, UniProt Q13547); experiment: HDAC biochemical assay; settings: relative to compound 6
Sequence of HDAC1 (Q13547 whole entry): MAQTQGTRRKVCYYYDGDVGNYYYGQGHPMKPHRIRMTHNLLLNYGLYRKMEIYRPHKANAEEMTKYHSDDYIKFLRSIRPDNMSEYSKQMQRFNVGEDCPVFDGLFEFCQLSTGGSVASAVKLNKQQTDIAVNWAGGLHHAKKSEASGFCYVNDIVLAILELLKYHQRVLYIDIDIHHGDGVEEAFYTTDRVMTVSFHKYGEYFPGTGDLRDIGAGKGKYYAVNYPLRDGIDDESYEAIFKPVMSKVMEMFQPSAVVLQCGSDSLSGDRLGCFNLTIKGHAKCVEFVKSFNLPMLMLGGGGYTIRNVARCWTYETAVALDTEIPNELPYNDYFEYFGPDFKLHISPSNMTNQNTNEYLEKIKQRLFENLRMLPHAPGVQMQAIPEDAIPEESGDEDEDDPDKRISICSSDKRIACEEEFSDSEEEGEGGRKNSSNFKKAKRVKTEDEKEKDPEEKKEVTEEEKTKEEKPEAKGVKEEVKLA

SMILES | IC50 range in words (HDACs 1–3) | fold decrease in activity in HDAC1 in going from 6 to its amide isostere (HDAC1) | 797 LogIC50 [1] | IC50 (HDACs 1–3) | 10326 LogIC50 [2]
CC(C)[C@@H]1NC(=O)[C@]2(C)CSC(=N2)c2csc(n2)CNC(=O)C[C@@H](/C=C/CCS)NC1=O [Compound 4, Largazole peptide isostere thiol] |  |  | −5.761 ± 0.05449 | < 25 nM | −4.923 ± 0.9900
CC(C)[C@@H]1NC(=O)[C@]2(C)CSC(=N2)c2ccnc(c2)CNC(=O)C[C@@H](/C=C/CCS)NC1=O [Compound 12, Peptide isostere pyridyl “OUT” thiol] | double-digit nM range |  |  | < 25 nM | 
CC(C)[C@@H]1NC(=O)[C@]2(C)CSC(=N2)c2csc(n2)CNC(=O)C[C@@H](/C=C/CCS)OC1=O [Compound 2, Largazole thiol, reference compound] |  |  |  | < 25 nM | 

Second part, led by results:

IC50 range in words (HDACs 1–3) | fold decrease in activity in HDAC1 in going from 6 to its amide isostere (HDAC1) | SMILES | 797 LogIC50 [1] | IC50 (HDACs 1–3) | 10326 LogIC50 [2]
single digit nM range |  | CC(C)[C@@H]1NC(=O)[C@]2(C)CSC(=N2)c2ccnc(c2)CNC(=O)C[C@@H](/C=C/CCS)OC1=O [Compound 8, Depsipeptide pyridyl “OUT” thiol] |  | < 25 nM | 
single digit nM range |  | CC(C)[C@@H]1NC(=O)[C@]2(C)CSC(=N2)c2cccc(n2)CNC(=O)C[C@@H](/C=C/CCS)OC1=O [Compound 6, Depsipeptide pyridyl “IN” thiol] |  | < 25 nM | 
double-digit nM range | 16 fold | CC(C)[C@@H]1NC(=O)[C@]2(C)CSC(=N2)c2cccc(n2)CNC(=O)C[C@@H](/C=C/CCS)NC1=O [Compound 10, Peptide isostere pyridyl “IN” thiol] |  |  | 
